Laboratory results taken from patent US10994015B2, “EGFR proteolysis targeting chimeric molecules and associated methods of use” (Arvinas Operations, Inc., priority 2016, dated 2021).

What was measured:
EGFR Exon20NPG = EGFR Exon20NPG (Homo sapiens (Human), UniProt P00533, INS770NPG); assay: TR-FRET assay for ERBB kinases; type: biochemical; conditions: geometric mean if measured more than once
Summary of the method: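 Compounds pre-incubated 10 min with kinase in HEPES pH 7.5 buffer (MgCl2, DTT, Pluronic), then reaction started with substrate mix (3 mM ATP, 30 µM fluorescein-poly-GluTyr, stock levels) for 10 min at room temperature. EDTA-quenched, detected by Tb-pY20 antibody TR-FRET (520/490 nm emission).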

EGFR L858R/T790M/C797S = EGFR L858R/T790M/C797S (Homo sapiens (Human), UniProt P00533, C797S/L858R/T790M); assay: TR-FRET assay for ERBB kinases; type: biochemical; conditions: geometric mean if measured more than once
Summary of the method: (§1)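 Read-out is TR-FRET between a terbium anti-phosphotyrosine (pY20) antibody and phosphorylated fluorescein-labelled poly-GluTyr, excited at 340 nm with donor 490 nm and acceptor 520 nm emission. Phosphorylation ran 10 min at room temperature after a 10 min compound–enzyme pre-incubation. The substrate mix contained 3 mM ATP.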

EGFR L858R/T790M = EGFR L858R/T790M (Homo sapiens (Human), UniProt P00533, L858R/T790M); assay: TR-FRET assay for ERBB kinases; type: biochemical; conditions: geometric mean if measured more than once
Summary of the method: as §1

EGFR WT = EGFR WT (Homo sapiens (Human), UniProt P00533); assay: TR-FRET assay for ERBB kinases; type: biochemical; conditions: geometric mean if measured more than once
Summary of the method: as §1

[1] = target: EGFR L858R/T790M double mutant (H1975) (Homo sapiens (Human), UniProt P00533, L858R/T790M); assay: EGFR protein degradation assay (Western blot); type: cell-based; conditions: 72 hours, 300 nM to 10 nM
Protocol: (§2) EGFR Protein Degradation assay
Cells expressing the appropriate form of EGFR were seeded in 6-well plates (300,000 cells per well) and allowed to adhere to the plate overnight. […] To harvest cells, media was removed and cells were washed once with ice-cold phosphate-buffered saline (PBS) prior to the addition of 400 μl lysis buffer (Cell Signaling Technology) supplemented with a protease inhibitor cocktail (Thermo Scientific). Cells were scraped from the plate and the cell lysate transferred to an Eppendorf tube and then clarified by a single spin at 10 000 rpm for 10 minutes. The protein concentration of each lysate was determined (BCA kit, Thermo Scientific) prior to the addition of loading buffer (Invitrogen) and reducing agent (Invitrogen). 10 μg protein of each lysate was loaded on an SDS/PAGE gel and run at 165V for 2 hours. Following transfer to a PVDF membrane (iBlot2, Thermo Fisher Scientific), the membrane was blocked in Tris-buffered saline containing 0.1% Tween-20 (TBS-T) and supplemented with 5% powdered milk for 1 hour. Membranes were then probed with EGFR and tubulin (loaded control) primary antibodies in TBS-T containing 3% bovine serum albumin (BSA) overnight at 4° C. Membranes were washed thrice with TBS-T before incubation with secondary antibody in TBS-T containing 3% bovine serum albumin (BSA) and incubated for 1 hour at room temperature. Following 3 further washes with TBS, membrane proteins of interest were detected by enzyme-linked chemiluminescence (ECL) using a Chemidoc (Bio-Rad).

[2] = target: EGFR L858R/T790M/C797S triple mutant (H520*) (Homo sapiens (Human), UniProt P00533, C797S/L858R/T790M); assay: EGFR protein degradation assay (Western blot); type: cell-based; conditions: 72 hours, 300 nM to 10 nM
Protocol: as §2
Cells were incubated overnight at 37° C., 5% CO2 prior to compound addition. A 10 mM compound stock in DMSO was serially diluted in DMSO to provide the following stock concentrations: 1, 0.3, 0.1, 0.03 and 0.01 mM. An appropriate volume of each compound dilution, together with a DMSO vehicle control, was added to media to provide a 2× compound solution. […] At the end of the compound treatment, cells were washed once with ice-cold phosphate-buffered saline (PBS) and treated with lysis solution (1× lysis buffer, Cell Signaling Technologies (CST #9803) supplemented with Piarce™ protease inhibitors, #A32953, Thermo Fisher Scientific, TFS). Lysates were collected and clarified of cell debris by spinning at 10K rpm for 10 minutes. A specific volume of supernatant was retrieved for protein quantification (Pierce™ BCA kit, TFS #23225) and for Western analysis. Loading buffer supplemented with EDTA and reducing agent was added to each supernatant. A specific volume of supernatant (determined by protein assay: […] loaded per sample) was loaded into a NuPAGE™ 4-12% Bis-Tris gel (TFS). Samples were run at 165V in MOPS running buffer for 2 hours and then transferred to PVDF blotting membrane using a dry blotting system (iBlot2, TFS). Membranes were blocked in Tris-buffered saline supplemented with Tween, 0.1% (TBST) containing 5% non-fat dry milk, (AmericanBio). Following block, membranes were washed once with TBST. […] Membranes were washed 3× with TBST prior to addition of secondary antibody (1:10 000, anti-rabbit HRP-linked, CST #7074) in TBST with 3% BSA and then incubated at room temperature for one hour. Membranes were then washed 3× with TBS and signal developed by exposure to developer (SuperSignal West Femto, TFS) for 5 minutes. Membranes were then immediately imaged using a BioRad Chemidoc.

Sequence of EGFR WT (P00533 25-1210): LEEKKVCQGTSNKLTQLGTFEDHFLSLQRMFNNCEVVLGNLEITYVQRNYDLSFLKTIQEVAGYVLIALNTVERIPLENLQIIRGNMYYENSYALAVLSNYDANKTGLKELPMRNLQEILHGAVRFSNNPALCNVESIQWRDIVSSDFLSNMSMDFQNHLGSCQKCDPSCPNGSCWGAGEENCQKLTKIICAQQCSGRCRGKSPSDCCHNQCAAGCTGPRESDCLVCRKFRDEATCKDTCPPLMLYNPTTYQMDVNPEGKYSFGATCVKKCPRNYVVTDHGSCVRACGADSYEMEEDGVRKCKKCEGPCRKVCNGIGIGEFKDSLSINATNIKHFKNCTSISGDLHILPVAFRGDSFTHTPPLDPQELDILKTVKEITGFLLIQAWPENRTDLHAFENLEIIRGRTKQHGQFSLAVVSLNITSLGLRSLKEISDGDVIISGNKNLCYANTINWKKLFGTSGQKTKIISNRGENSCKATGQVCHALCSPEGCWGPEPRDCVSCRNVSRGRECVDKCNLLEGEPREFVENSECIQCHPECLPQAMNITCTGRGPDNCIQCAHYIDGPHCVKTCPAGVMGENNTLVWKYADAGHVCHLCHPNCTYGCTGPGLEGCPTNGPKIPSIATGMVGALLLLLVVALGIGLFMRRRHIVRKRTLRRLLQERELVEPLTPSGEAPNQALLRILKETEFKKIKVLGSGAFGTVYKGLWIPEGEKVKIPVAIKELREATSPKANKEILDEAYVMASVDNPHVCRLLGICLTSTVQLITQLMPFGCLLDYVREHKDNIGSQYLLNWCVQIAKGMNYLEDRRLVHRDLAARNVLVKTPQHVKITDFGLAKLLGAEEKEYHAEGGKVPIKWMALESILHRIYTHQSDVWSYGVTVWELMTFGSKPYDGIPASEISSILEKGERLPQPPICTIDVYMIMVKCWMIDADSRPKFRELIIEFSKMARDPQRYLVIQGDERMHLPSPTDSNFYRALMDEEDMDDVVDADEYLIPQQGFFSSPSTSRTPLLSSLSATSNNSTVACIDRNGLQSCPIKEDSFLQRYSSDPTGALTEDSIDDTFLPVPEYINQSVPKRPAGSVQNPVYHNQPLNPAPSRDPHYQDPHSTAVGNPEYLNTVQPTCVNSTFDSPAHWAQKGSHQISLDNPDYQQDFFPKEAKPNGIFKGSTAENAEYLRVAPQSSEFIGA
Sequence of EGFR L858R/T790M (P00533 25-1210 T790M/L858R): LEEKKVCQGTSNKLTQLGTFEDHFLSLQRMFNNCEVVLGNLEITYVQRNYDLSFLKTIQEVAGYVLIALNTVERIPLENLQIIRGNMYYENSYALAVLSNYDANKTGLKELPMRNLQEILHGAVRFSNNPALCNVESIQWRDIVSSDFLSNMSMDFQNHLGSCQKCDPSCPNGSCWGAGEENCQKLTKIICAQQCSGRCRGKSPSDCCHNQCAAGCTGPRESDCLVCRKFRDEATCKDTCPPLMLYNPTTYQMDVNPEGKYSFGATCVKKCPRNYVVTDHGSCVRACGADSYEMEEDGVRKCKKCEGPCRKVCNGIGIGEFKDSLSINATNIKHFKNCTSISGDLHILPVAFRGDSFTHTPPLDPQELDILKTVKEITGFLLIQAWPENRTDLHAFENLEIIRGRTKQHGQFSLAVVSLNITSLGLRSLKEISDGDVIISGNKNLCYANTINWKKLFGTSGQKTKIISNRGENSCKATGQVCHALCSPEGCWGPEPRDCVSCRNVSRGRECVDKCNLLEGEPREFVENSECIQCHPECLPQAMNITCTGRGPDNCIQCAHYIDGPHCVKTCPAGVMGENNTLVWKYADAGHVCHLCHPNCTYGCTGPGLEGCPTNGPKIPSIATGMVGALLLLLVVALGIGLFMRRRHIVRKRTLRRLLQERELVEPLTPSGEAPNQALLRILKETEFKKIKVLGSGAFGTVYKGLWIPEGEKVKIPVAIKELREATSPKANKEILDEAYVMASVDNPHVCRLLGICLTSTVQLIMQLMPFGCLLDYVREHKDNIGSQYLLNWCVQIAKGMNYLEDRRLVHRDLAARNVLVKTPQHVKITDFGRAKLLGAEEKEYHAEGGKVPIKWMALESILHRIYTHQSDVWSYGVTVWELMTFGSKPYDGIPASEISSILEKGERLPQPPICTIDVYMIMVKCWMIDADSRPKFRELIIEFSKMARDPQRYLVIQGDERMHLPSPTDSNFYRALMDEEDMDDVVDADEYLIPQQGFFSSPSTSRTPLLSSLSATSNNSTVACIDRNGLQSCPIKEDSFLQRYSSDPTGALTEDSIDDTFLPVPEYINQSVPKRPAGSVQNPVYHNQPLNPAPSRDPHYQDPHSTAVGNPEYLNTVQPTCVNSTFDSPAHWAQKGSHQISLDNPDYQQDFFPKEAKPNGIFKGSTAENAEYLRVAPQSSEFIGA
Sequence of EGFR L858R/T790M double mutant (H1975) (P00533 25-1210 T790M/L858R): as above
Sequence of EGFR L858R/T790M/C797S triple mutant (H520*) (P00533 25-1210 T790M/C797S/L858R): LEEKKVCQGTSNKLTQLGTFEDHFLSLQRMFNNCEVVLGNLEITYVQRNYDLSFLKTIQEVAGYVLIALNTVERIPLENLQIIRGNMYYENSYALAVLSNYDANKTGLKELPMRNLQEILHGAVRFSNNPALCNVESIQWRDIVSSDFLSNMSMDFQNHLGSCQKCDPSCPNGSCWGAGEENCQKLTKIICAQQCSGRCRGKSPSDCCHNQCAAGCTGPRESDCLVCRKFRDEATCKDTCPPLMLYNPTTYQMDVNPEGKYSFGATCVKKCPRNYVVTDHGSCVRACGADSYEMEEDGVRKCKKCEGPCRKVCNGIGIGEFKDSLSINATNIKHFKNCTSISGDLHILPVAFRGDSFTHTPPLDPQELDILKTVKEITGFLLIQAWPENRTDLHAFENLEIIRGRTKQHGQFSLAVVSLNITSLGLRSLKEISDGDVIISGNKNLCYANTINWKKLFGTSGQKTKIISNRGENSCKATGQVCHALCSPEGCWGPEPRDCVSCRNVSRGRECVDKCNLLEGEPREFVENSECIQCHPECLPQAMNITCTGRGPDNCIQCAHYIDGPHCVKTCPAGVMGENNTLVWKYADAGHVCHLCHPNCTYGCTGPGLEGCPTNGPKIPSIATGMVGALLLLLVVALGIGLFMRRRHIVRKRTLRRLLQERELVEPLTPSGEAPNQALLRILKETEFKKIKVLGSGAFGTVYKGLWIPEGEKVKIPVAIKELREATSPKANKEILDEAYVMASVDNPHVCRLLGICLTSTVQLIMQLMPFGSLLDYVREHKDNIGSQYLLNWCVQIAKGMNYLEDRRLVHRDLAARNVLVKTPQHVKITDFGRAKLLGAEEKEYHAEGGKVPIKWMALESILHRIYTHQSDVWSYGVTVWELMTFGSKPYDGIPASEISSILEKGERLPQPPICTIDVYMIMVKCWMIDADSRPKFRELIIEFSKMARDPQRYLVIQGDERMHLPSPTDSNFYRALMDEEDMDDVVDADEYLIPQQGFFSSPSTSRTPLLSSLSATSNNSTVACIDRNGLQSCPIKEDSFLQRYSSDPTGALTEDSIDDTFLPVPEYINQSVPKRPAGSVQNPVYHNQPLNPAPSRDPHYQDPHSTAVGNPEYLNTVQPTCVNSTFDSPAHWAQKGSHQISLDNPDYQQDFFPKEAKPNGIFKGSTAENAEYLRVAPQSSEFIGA

Compound	IC50 (EGFR Exon20NPG) [µM]	IC50 (EGFR L858R/T790M/C797S) [nM]	IC50 (EGFR L858R/T790M) [µM]	IC50 (EGFR WT) [µM]	EGFR protein remaining, EGFR L858R/T790M double mutant [1]	EGFR protein remaining, EGFR L858R/T790M/C797S triple mutant [2]
Cc1ncsc1-c1ccc(CNC(=O)[C@@H]2C[C@@H](O)CN2C(=O)[C@H](C(C)C)N2Cc3ccccc3C2=O)c(OCCOCCOCC#Cc2cccc3c2C(=O)N([C@@H](C(=O)Nc2nccs2)c2cc(F)ccc2O)C3)c1 (single isomer, unassigned) [Example 257]	> 30	2700	> 30	5.7	C (>80% EGFR protein remaining after 72 hours of incubation with the test compound at a concentration of 300 nM)	C (>80% EGFR protein remaining after 72 hours of incubation with the test compound at a concentration of 300 nM)
Cc1ncsc1-c1ccc([C@H](C)NC(=O)[C@H]2C[C@H](O)CN2C(=O)[C@@H](NC(=O)COCCCOCCCC#Cc2cccc3c2C(=O)N(C(C(=O)Nc2nccs2)c2cc(F)ccc2O)C3)C(C)(C)C)cc1 (stereo partly drawn) [compound 93]	3.3	530	3.5	11	C (>80% EGFR protein remaining after 72 hours of incubation with the test compound at a concentration of 300 nM)	C (>80% EGFR protein remaining after 72 hours of incubation with the test compound at a concentration of 300 nM)
COC1CCN(c2nccc(Nc3cc4c(cn3)nc(COCCOCCN3CCN(CCCCc5ccc6c(c5)C(=O)N(C5CCC(=O)NC5=O)C6=O)CC3)n4C(C)C)n2)CC1 (stereo not drawn) [compound 87]	14	3300	15	> 30	C (>80% EGFR protein remaining after 72 hours of incubation with the test compound at a concentration of 300 nM)	C (>80% EGFR protein remaining after 72 hours of incubation with the test compound at a concentration of 300 nM)
O=C1CCC(N2C(=O)c3cccc(NCCOCCOCCOCC#Cc4cccc5c4C(=O)N([C@@H](C(=O)Nc4nccs4)c4cc(F)ccc4O)C5)c3C2=O)C(=O)N1 (stereo partly drawn) [compound 265]	20	290	27	3.6	C (>80% EGFR protein remaining after 72 hours of incubation with the test compound at a concentration of 300 nM)	C (>80% EGFR protein remaining after 72 hours of incubation with the test compound at a concentration of 300 nM)
Cc1ncsc1-c1ccc(CNC(=O)[C@@H]2C[C@@H](O)CN2C(=O)[C@H](C(C)C)N2Cc3ccccc3C2=O)c(OCCOCCOCCOCCOCCOCC#Cc2cccc3c2C(=O)N([C@@H](C(=O)Nc2nccs2)c2cc(F)ccc2O)C3)c1 [compound 260]	> 30	560	20	3.2	C (>80% EGFR protein remaining after 72 hours of incubation with the test compound at a concentration of 300 nM)	C (>80% EGFR protein remaining after 72 hours of incubation with the test compound at a concentration of 300 nM)
O=C1CCC(N2C(=O)c3ccc(N4CCN(CCCOCCCC#Cc5cccc6c5C(=O)N(C(C(=O)Nc5nccs5)c5cc(F)ccc5O)C6)CC4)cc3C2=O)C(=O)N1 (stereo not drawn) [compound 95]	3.3	2200	6.7	4.2	C (>80% EGFR protein remaining after 72 hours of incubation with the test compound at a concentration of 300 nM)	C (>80% EGFR protein remaining after 72 hours of incubation with the test compound at a concentration of 300 nM)
